# According to patent US20230372337A1, “Combination Therapy Comprising an AXL Inhibitor” (BERGENBIO ASA, priority 2020, published 2023):
# Where two headings read alike, the source gives them in different places.
# Tests used:
# [1] = system: type I IFN related genes (ISG); assay: RT2 Profiler PCR Array Mouse Type I Interferon Response on 4T1 tumors (Example 2); type: in vivo, Balb/c mice
# From the text: Bemcentinib was given as a loading dose for 3 days (11-13 after tumor implantation) and then as a standard dose until sacrifice.
# 9 mice have been excluded of the study because of the absence of tumor on day 11. On day 11 post implantation half of the cages were placed in the bemcentinib treated group and the other half in the […]. The average tumor volume when bemcentinib treatment was initiated (day 11) was 54.99 mm^3. […] The tumor volumes when bemcentinib treatment was initiated and the day of randomization are recorded in table 8. The intra tumomoral injection of doxorubicin and sting agonists was adjusted to the tumor volume.
# Doxorubicin is provided in a 2 mg/ml solution. As it is technically challenging to inject 50 ul liquid into tumors measuring <100 mm^3, the total dosing volume was calculated based on the following formula: V=50 ul×(TV/120). This is done to minimize variability due to leakage during intratumoral injection. For the 1 mg/kg dose (E,F) Doxorubicin was given at a concentration of 0.5 mg/ml, which corresponds to 1 mg/kg for a 25 g mouse with a tumor of 120 mm^3, and 1 mg/kg for a 20 g mouse with a tumor of 100 mm^3. For 3 mg/kg dose (G,H), a solution of 1.5 mg/ml was used and same volumes was injected. For the 6 mg/kg dose (I,J) the commercial solution of 2 mg/ml will be used and 75 ul was injected for tumor with a volume of 120 mm^3.
# The same formula as for doxorubicin was used V=50 ul×(TV/120).
# RNA was extracted from […] snap frozen tumors using the RNEasy Microarray Tissue Mini kit from Qiagen following the manufacturer's instructions. As tumors contained Doxorubicin and powderizing them could expose personnel to harmful substances, the RNA was extracted in a closed system using the GentleMACS dissociator and M Tubes. Purity and concentration of RNA was measured using Nanodrop. cDNA was synthesized from RNA using the RT^2 First Strand kit (Qiagen) according to the manufacturer's instructions. cDNA was mixed with RT^2 SYBR Green Mastermix (Qiagen) and loaded into RT Profiler™ PCR Array Mouse Type I Interferon Response or RT^2 Profiler™ PCR Array Mouse Epithelial to Mesenchymal Transition (EMT), analyzing the expression of 84 genes listed in Tables 9 and 10. The plates were analyzed using Light Cycler 480 (Roche) and data were analyzed using the Qiagen Data Analysis Centre and Graph Pad (Prism).
# Quiagen RT^2 software was used to analyze all the samples from different groups. To be able to generate heatmaps and graph on fold change including error bars, the data have been analyzed manually with Graph Pad (Prism) when the Quiagen RT^2 software gave significant results between the different groups. For IFN type 1 response 1 mg/kg 48, 72 h and 3 mg/kg 48 h, were analyzed manually. For EMT, 1 mg/kg 48, 72 h, 3 mg/kg 72 h. When the data have been analyzed manually, the results are presented as histograms of mRNA fold changes. For the time points and doses analyzed by the software, the results are presented as tables.
# GraphPadPrism was used to generate the heat maps, graphs with mRNA fold change, and to make the statistics. Multiple TTests, paired were performed on ΔΔ Ct values.
# The expression of type I IFN related genes (ISG) was assessed in tumors collected 24, 48 and 72 hours after i.t. doxorubicin treatment. 3 groups were compared per timepoint: bemcentinib (bern), doxorubicin only (dox) and doxorubicin combined with bemcentinib (doxbern), the fold changes were compared with the control groups injected with PBS, and the fold change was 1 for the control groups.
# 43 mouse cytokines = assay: Plasma cytokines, ProcartaPlex Multiplex Immunoassay (Luminex) (Example 2); type: in vivo, Balb/c mice; conditions: 1 mg/kg doxorubicin i.t., 72 h post injection, 43 measured
# Description: The manufacturer user guide was followed. The samples were analyzed by (MAGPIX) and the results were obtained as concentration in pg/ml of mouse plasma. At least 3 samples per group, 4 for many, were analyzed.
# Yumm 1.7 cells = assay: Metastasis, tumor weight and spleen weight, Yumm1.7 model (Example 3); type: in vivo, C57Bl6 mice; conditions: average on the day of sacrifice
# Description: Spleens were weighed and prepared for Cytof (cut into pieces of 2 mm and frozen in FBS 90%, DMSO 10% and stored at −80° C. prior to dissociation).
# Tumors were weighed and cut in 3 along the long axis, one third was snap frozen in liquid nitrogen in 2 cryotubes per tumor, another third was prepared for Cytof (Cut into pieces of 2 mm and frozen in FBS 90%, DMSO 10% and stored at −80C prior to dissociation). The last piece was fixed in 4% formalin for 24 hours at room temperature and stored in 70% ethanol at 4° C. until embedding in paraffin.
# 4T1 cells [2] = assay: RNA sequencing of 4T1 cells in vitro (Example 4); type: cell-based, mouse; conditions: without supplemental Gas6
# Yumm1.7 cells = assay: qRTPCR of IFN related genes in Yumm1.7 cells in vitro (Example 4); type: cell-based, mouse
# [3] = system: 4T1 mammary carcinoma cells; assay: 4T1 syngeneic mammary carcinoma model, tumor growth and survival (Example 1); conditions: 4T1 model; for Effect on mouse survival: without the CPI treatment, 500 mm^3
# From the text: Exponentially growing 4T1 mammary carcinoma cells were harvested and re-suspended at 4×10^6 per ml in the mixture of serum-free RPMI medium and Matrigel (1:1). Only cells with over 95% viability have been used for in vivo study.
# Each animal was weighed before cell implantation. Mice were anesthetized by inhalation of Sevoflurane. Anesthesia was induced at 8% Sevoflurane and maintained at 4%. Every mouse was placed on a heating pad and appropriately marked. Under a suitable depth of unconsciousness, animals were shaved, and the skin and surrounding region washed with Chlorhexidine (1 mg/ml) with use of sterile gauze. Injection was done orthotopically with one tumor per mouse with 0.05 ml of approximately 2×10^5 4T1 cells in serum-free RPMI medium/Matrigel (1:1).
# 2 randomizations were performed on 150 mice in 30 cages, with 5 animals per cage. The first randomization was performed on day 11 post implantation. The average of tumor volume of animals in each cage was determined. The average tumor volume in the cages was from 3.8 mm^3 to 19.7 mm^3. […] The first randomization was conducted with Latin square method based on the average tumor volume of all animals in each cage. […] Once the average tumor size reached 70 mm^3 for vehicle treated animals and 76 mm^3 for bemcentinib treated animals (tumor volume=L×W×W/2) the second randomization was performed prior to injection of chemotherapeutic agent (doxorubicin) on day 16. Randomization 2 was conducted with Latin square method based on average tumor volume of all animals in the bemcentinib group and in the vehicle group from randomization 1. […]
# Tumor growth was measured with a digital hand held caliper at least twice weekly (once tumor emerges), prior to the first dosing, and then on the day of euthanasia.
# When tumors reached an average of 7-170 mm^3, each animal received Doxorubicin (Dox) at a concentration of 0.5 mg/ml (groups C,D,F and H) in a total volume of 50 ul×TV/120 as indicated in Table 1. […] Total drug dose was calculated based on each animal's individual tumor size. […]
# [4] = mouse, in vivo
# From the text: Animals were weighed prior to tumor cell injection, prior to daily dosing and prior to euthanasia.
# [5] = system: 4T1 mammary carcinoma cells; assay: Tumor growth, 4T1 model (Example 2); design: species or system Balb/c mice; conditions: short in vivo study, single i.t. injection day 15
# Description: Tumor growth was measured with a digital handheld caliper twice weekly from emergence of tumor and until the day of euthanasia
# 4T1 cells [6] = assay: qRTPCR of IFN related genes in 4T1 cells in vitro (Example 4); type: cell-based, mouse; conditions: doxorubicin, 42 ISG measured
# LL2 cells = assay: Resazurin viability assay of LL2 cells (Example 4); type: cell-based, mouse
# Description: 4T1 cells (ATCC, CRL-2539) were cultured in RPMI-1640 (Sigma, Cat. #R8758) supplemented with 10% fetal bovine serum (FBS), L-glutamine (4 mM), streptomycin (5 μg/ml) and penicillin (5 U/ml). […] Lewis lung carcinoma cells LL/2 (LLC1) (ATCC, CRL-1642™) were cultured in Dulbecco's Modified Eagle's Medium ATCC® 30-2002™ (4 mM L-glutamine, 4500 mg/L glucose, 1 mM sodium pyruvate, and 1500 mg/L sodium bicarbonate).
# The IC50 of the different drugs were calculated by resazurin viability assay. […] The cells were treated for 48 hours.
# [7] = 24 hours after DMXAA i.t. treatment
# [8] = doxorubicin 1 mg/kg i.t., 24 hours after injection, 84 genes
# [9] = Yumm1.7 cells, doxorubicin 24 hours
structure (smiles),measurement,setting,value
"Nc1nc(Nc2ccc3c(c2)CC[C@@H](N2CCCC2)CC3)nn1-c1cc2c(nn1)-c1ccccc1CCC2 [Bemcentinib, bemcentinib]",Fold change of upregulated ISG,[1]; [7],around 2 fold
same,ISG significantly upregulated compared to control (number),[1]; [7],3
same,ISG significantly upregulated compared to control (number),[1]; [8],no ISG
same,ISG significantly upregulated compared to control (number),"[1]; doxorubicin 1 mg/kg i.t., 48 h",none
same,ISG significantly upregulated compared to control (number),"[1]; doxorubicin 3 mg/kg i.t., 48 h",No
same,Cytokines with a significant decrease of concentration (number),43 mouse cytokines,4
same,Spleen weight,Yumm 1.7 cells,0.10 g
same,IFN related gene expression by RNA sequencing,4T1 cells [2],limited IFN type I response
same,Effect on the IFNB mediated response,Yumm1.7 cells; Yumm1.7 cells treated with IFNB,"appeared to increase the IFNB mediated response, although not reaching significance"
same,Median survival (tumor volume 1000 mm^3),[3]; days until tumor 1000 mm^3 or sacrifice due to severe symptoms,34.5 days
same,Effect on mouse survival,[3],do not show any effect
"COc1cccc2c1C(=O)c1c(O)c3c(c(O)c1C2=O)C[C@@](O)(C(=O)CO)C[C@@H]3O[C@H]1C[C@H](N)[C@H](O)[C@H](C)O1 [Doxorubicin, doxorubicin]",ISG significantly upregulated compared to control (number),[1]; [8],no ISG
same,Fold change of one upregulated ISG,"[1]; doxorubicin 1 mg/kg i.t., 48 h",3 fold
same,ISG significantly upregulated compared to control (number),"[1]; doxorubicin 1 mg/kg i.t., 48 h",one
same,ISG significantly upregulated compared to control (number),"[1]; doxorubicin 3 mg/kg i.t., 24 h",one
same,ISG significantly upregulated compared to control (number),"[1]; doxorubicin 3 mg/kg i.t., 48 h",No
same,ISG significantly upregulated compared to control (number),"[1]; doxorubicin 6 mg/kg i.t., 24 hours",1
same,ISG significantly upregulated compared to control (number),"[1]; doxorubicin 6 mg/kg i.t., 48 hours",8
same,ISG significantly upregulated compared to control (number),"[1]; doxorubicin 6 mg/kg i.t., 72 hours",6
same,Effect on the body weight of mice,[4],limited effect
same,Tumor growth,[5],no effect
same,Spleen weight,Yumm 1.7 cells,0.17 g
same,ISG with significant mRNA fold change upregulation compared to control (number),4T1 cells [6],9
same,IFIT1 mRNA fold change,Yumm1.7 cells; [9],20 fold
same,OAS2 mRNA fold change,Yumm1.7 cells; [9],50 fold
same,RSAD2 mRNA fold change,Yumm1.7 cells; [9],20 fold
same,ISG significantly upregulated compared to control (number),"Yumm1.7 cells; Yumm1.7 cells, doxorubicin 24 hours, 21 ISG tested",9
same,IC50,"LL2 cells; Mus musculus, LL/2, read-out: IC50 without bem",178 nM
same,IC50,"LL2 cells; in the presence of bemcentinib, read-out: IC50 with bem",70.3 nM
same,Effect on mouse survival,[3],do not show any effect
